Assays:
Assay in all cases: relative viability (nuclei count vs DMSO), 5 days (fraction); higher = more cells survive
[1] = compound: CC1CC(=O)N(C2=CN=C(N=C2N1C3CCCC3)NC4=C(C=C(C=C4)C(=O)NC5CCN(CC5)C)OC)C [NPK76-II-72-1] + N=C(N)NC(=N)NCCc1ccccc1 [Phenformin] (partner 250 µM)
Outline: (§1)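 Relative viability equals treated-well nuclei counts divided by vehicle-well nuclei counts. Counts came from 4× images of lung cancer cell lines grown in 1536-well plates for 5 days after pin-tool dosing on the day after seeding. Dosing used one drug alone or a fixed anchor-drug dose plus five library-drug doses (not always all listed) in √10 steps, and values are medians of duplicate plates.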

BI-2536 + Bortezomib = compound: CC[C@@H]1C(=O)N(C)c2cnc(Nc3ccc(C(=O)NC4CCN(C)CC4)cc3OC)nc2N1C1CCCC1 [BI-2536] + CC(C)C[C@H](NC(=O)[C@H](Cc1ccccc1)NC(=O)c1cnccn1)B(O)O [Bortezomib] (partner 0.002 µM)
Outline: as §1

BI-2536 + Lapatinib = compound: CC[C@@H]1C(=O)N(C)c2cnc(Nc3ccc(C(=O)NC4CCN(C)CC4)cc3OC)nc2N1C1CCCC1 [BI-2536] + CS(=O)(=O)CCNCc1ccc(-c2ccc3ncnc(Nc4ccc(OCc5cccc(F)c5)c(Cl)c4)c3c2)o1 [Lapatinib] (partner 2 µM)
Outline: as §1

[2] = compound: CC1CC(=O)N(C2=CN=C(N=C2N1C3CCCC3)NC4=C(C=C(C=C4)C(=O)NC5CCN(CC5)C)OC)C [NPK76-II-72-1] + Cc1cc(Nc2cc(N3CCN(C)CC3)nc(Sc3ccc(NC(=O)C4CC4)cc3)n2)n[nH]1 [Tozasertib] (partner 0.1 µM)
Outline: as §1

| Cell Line | relative viability ([1]; first compound 0.01 µM) | relative viability ([1]; first compound 0.03162 µM) | relative viability ([1]; first compound 0.1 µM) | relative viability ([1]; first compound 0.3162 µM) | relative viability ([1]; first compound 1 µM) | relative viability (BI-2536 + Bortezomib; first compound 0.01 µM) | relative viability (BI-2536 + Bortezomib; first compound 0.03162 µM) | relative viability (BI-2536 + Bortezomib; first compound 0.1 µM) | relative viability (BI-2536 + Bortezomib; first compound 0.3162 µM) | relative viability (BI-2536 + Bortezomib; first compound 1 µM) | relative viability (BI-2536 + Lapatinib; first compound 0.01 µM) | relative viability (BI-2536 + Lapatinib; first compound 0.03162 µM) | relative viability (BI-2536 + Lapatinib; first compound 0.1 µM) | relative viability (BI-2536 + Lapatinib; first compound 0.3162 µM) | relative viability (BI-2536 + Lapatinib; first compound 1 µM) | relative viability ([2]; first compound 0.01 µM) | relative viability ([2]; first compound 0.03162 µM) | relative viability ([2]; first compound 0.1 µM) | relative viability ([2]; first compound 0.3162 µM) | relative viability ([2]; first compound 1 µM) |
| --- | --- | --- | --- | --- | --- | --- | --- | --- | --- | --- | --- | --- | --- | --- | --- | --- | --- | --- | --- | --- |
| NCI-H1563 | 0.686 | 0.606 | 0.637 | 0.656 | 0.697 | 0.935 | 0.802 | 0.842 | 0.563 | 0.683 | 0.906 | 0.938 | 0.832 | 0.568 | 0.638 |  |  |  |  |  |
| NCI-H1623 | 0.562 | 0.563 | 0.622 | 0.324 | 0.622 |  |  |  |  |  |  |  |  |  |  | 0.467 | 0.434 | 0.353 | 0.341 | 0.467 |
| NCI-H1648 |  |  |  |  |  |  |  |  |  |  |  |  |  |  |  | 0.523 | 0.431 |  |  | 0.474 |
| NCI-H1703 |  |  |  |  |  | 0.313 | 0.252 | 0.13 | 0.161 | 0.11 | 0.956 |  | 0.323 | 0.174 | 0.113 |  |  |  |  |  |
| NCI-H1792 | 0.289 | 0.367 | 0.16 | 0.287 | 0.422 | 0.985 | 1 | 1.06 | 0.716 | 0.147 | 0.93 | 0.751 | 1.09 | 0.186 | 0.0746 |  |  |  |  |  |
| NCI-H1793 | 0.3 | 0.387 | 0.38 | 0.31 | 0.432 |  |  |  |  |  | 0.581 | 0.507 | 0.256 |  | 0.193 | 0.34 | 0.377 | 0.36 | 0.263 | 0.369 |
| NCI-H1944 | 0.197 | 0.197 | 0.198 | 0.187 | 0.211 |  |  |  |  |  | 0.848 | 0.832 | 0.754 | 0.678 | 0.161 | 0.255 | 0.283 | 0.245 | 0.228 | 0.257 |
| NCI-H2170 | 0.412 | 0.432 | 0.402 | 0.404 | 0.461 |  |  |  |  |  | 0.291 | 0.273 | 0.205 | 0.199 | 0.171 | 0.688 | 0.708 | 0.69 | 0.527 | 0.812 |
| NCI-H2342 | 0.606 | 0.472 | 0.675 | 0.394 | 0.623 |  |  |  |  |  |  |  |  |  |  | 0.621 | 0.467 | 0.498 | 0.437 | 0.537 |
| SK-MES-1 | 0.649 | 0.718 | 0.646 | 0.643 | 0.722 |  |  |  |  |  | 0.465 | 0.45 | 0.503 | 0.213 | 0.186 | 0.938 | 0.999 | 0.876 | 0.937 | 0.922 |
| SW 900 | 0.559 | 0.73 | 0.657 | 0.664 | 0.699 |  |  |  |  |  |  |  |  |  |  | 0.675 | 0.524 | 0.482 | 0.536 | 0.644 |

From the supplement of paper PMC10307832
